According to patent US8362249B2, “CXCR3 receptor antagonists” (Boehringer Ingelheim International GmbH, priority 2009, dated 2013):

Molecular target: CXCR3 (Macaca fascicularis, UniProt A0A2K5UV19)
Assay: functional cellular assay measuring calcium flux in CXCR3 transfected cells (block of CXCR3/IP-10 interaction)
Assay type: cell-based
Conditions: IP-10 induced intracellular calcium flux; Cyno-CHO cells stably expressing recombinant CXCR3 and G-alpha-16
Procedure: Compounds are assessed for the ability to block the interaction of CXCR3 and IP-10 in a functional cellular assay measuring calcium flux in CXCR3 transfected cells.
Cyno-CHO cells, stably expressing recombinant CXCR3 and G-alpha-16 are grown in F12 medium (Mediatech #45000-360) supplemented with 10% (V/V) FBS (Mediatech #35-01500), 1% Geneticin (Invitrogen #10131-027) and 0.2% Zeocin (Invitrogen #R250-05). The cells are spun down and re-suspended in growth media to a concentration of 4.8 E5 cells/mL. 25 microL of cell suspension is added to each well of a BD-384-well TC treated plate, providing 12,000 cells/well. The plate is incubated at 37° C./5% CO2 overnight. On the day of the assay, the plates are removed, the media is flicked out and 25 microL of Ca-4 dye in assay buffer (HBSS, 10 mM HEPES ph 7.4), containing 2 mM probenacid is added to each well. The cell assay plates are then incubated at 37° C./5% CO2 for one hour.
Test compounds are dissolved in DMSO and diluted to 1.045 mM in DMSO. Just prior to assay, 2.75 microL of appropriately diluted test compound are added to each well of a 384 well plate containing 45 microL of HBSS buffer. After mixing, 5 microL of diluted compound are added to each well of the cell assay plate for a final assay concentration of 10 microM. The plate is incubated at room temperature for 15 min. 10 microL of IP-10 stock solution in HBSS (4× EC80 concentration) are added to each well of the cell assay plate except those cells reserved as blank wells containing buffer only. Intracellular calcium flux is recorded on the HAMAMTSU FDSS6000, using excitation at 480 nm and emission at 540 nm. Data are analyzed using Activity Base software.
In general, the preferred potency range (IC50) of compounds in the above assay is between 1 nM to 3 μM, and the most preferred potency range is 1 nM to 20 nM.

CXCR3, sequence (A0A2K5UV19 entry or part of it): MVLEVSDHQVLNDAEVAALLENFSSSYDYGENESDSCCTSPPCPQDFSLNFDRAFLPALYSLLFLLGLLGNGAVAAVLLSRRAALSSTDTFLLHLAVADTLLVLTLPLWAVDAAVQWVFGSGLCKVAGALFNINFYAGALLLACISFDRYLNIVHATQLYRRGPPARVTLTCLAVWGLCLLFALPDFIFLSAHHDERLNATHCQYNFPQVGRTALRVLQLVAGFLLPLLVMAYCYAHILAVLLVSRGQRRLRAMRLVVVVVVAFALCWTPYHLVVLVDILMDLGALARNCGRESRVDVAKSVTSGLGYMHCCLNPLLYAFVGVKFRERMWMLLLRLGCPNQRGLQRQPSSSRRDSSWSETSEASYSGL

SMILES | IC50 [nM]
Cc1cc(C)n(CC(=O)N2CCN(c3ccccc3C(=O)Nc3ccccc3)CC2)n1 [2-{4-[2-(3,5-Dimethyl-pyrazol-1-yl)-acetyl]-piperazin-1-yl}-N-phenyl-benzamide] | 13
Cc1cc(C)n(CC(=O)N2CCN(c3ccccc3C(=O)Nc3cc(CC(C)(C)C)no3)CC2)n1 [N-[3-(2,2-Dimethyl-propyl)-isoxazol-5-yl]-2-{4-[2-(3,5-dimethyl-pyrazol-1-yl)-acetyl]-piperazin-1-yl}-benzamide] | 9.5
CC(=O)Nc1ccc(NC(=O)c2ccccc2N2CCN(C(=O)Cn3nc(C)cc3C)CC2)cn1 [N-(6-Acetylamino-pyridin-3-yl)-2-{4-[2-(3,5-dimethyl-pyrazol-1-yl)-acetyl]-piperazin-1-yl}-benzamide] | 10.2
COc1ccc2nc(NC(=O)c3ccccc3N3CCN(C(=O)Cn4nc(C)cc4C)CC3)sc2c1 [2-{4-[2-(3,5-Dimethyl-pyrazol-1-yl)-acetyl]-piperazin-1-yl}-N-(6-methoxy-benzothiazol-2-yl)-benzamide] | 9.8
Cc1cc(C)n(CC(=O)N2CCN(c3ccccc3C(=O)Nc3cnc(C)c(F)c3)CC2)n1 [2-{4-[2-(3,5-Dimethyl-pyrazol-1-yl)-acetyl]-piperazin-1-yl}-N-(5-fluoro-6-methyl-pyridin-3-yl)-benzamide] | 14
COc1ccc(C(=O)NCC(=O)N2CCN(c3ccccc3C(=O)Nc3ccncc3)CC2)cc1OC [3,4-Dimethoxy-N-(2-oxo-2-{4-[2-(pyridin-4-ylcarbamoyl)-phenyl]-piperazin-1-yl}-ethyl)-benzamide] | 4.6
COc1cc(NC(=O)c2cc(F)ccc2N2CCN(C(=O)CN3CCCCC3=O)CC2)ccn1 [5-Fluoro-N-(2-methoxy-pyridin-4-yl)-2-{4-[2-(2-oxo-piperidin-1-yl)-acetyl]-piperazin-1-yl}-benzamide] | 9
Cn1cccc1C(=O)NCC(=O)N1CCN(c2ccccc2C(=O)Nc2cccnc2)CC1 [1-Methyl-1H-pyrrole-2-carboxylic acid (2-oxo-2-{4-[2-(pyridin-3-ylcarbamoyl)-phenyl]-piperazin-1-yl}-ethyl)-amide] | 12
Cc1cc(C)n(CC(=O)N2CCN(c3ccccc3C(=O)Nc3nc4ccccc4s3)CC2)n1 [N-Benzothiazol-2-yl-2-{4-[2-(3,5-dimethyl-pyrazol-1-yl)-acetyl]-piperazin-1-yl}-benzamide] | 5.9
Cc1cc(C)n(CC(=O)N2CCN(c3ncc(Cl)cc3NC(=O)c3cccc(Cl)c3)CC2)n1 [3-Chloro-N-(5-chloro-2-{4-[2-(3,5-dimethyl-pyrazol-1-yl)-acetyl]-piperazin-1-yl}-pyridin-3-yl)-benzamide] | 11.5
Cc1cc(C)n(CC(=O)N2CCN(c3ccccc3C(=O)Nc3cnc4c(c3)c(C)nn4C)CC2)n1 [N-(1,3-Dimethyl-1H-pyrazolo[3,4-b]pyridin-5-yl)-2-{4-[2-(3,5-dimethyl-pyrazol-1-yl)-acetyl]-piperazin-1-yl}-benzamide] | 8.7
O=C(Nc1ccnc(C(F)(F)F)c1)c1ccccc1N1CCN(C(=O)CN2CCCCC2=O)CC1 [2-{4-[2-(2-Oxo-piperidin-1-yl)-acetyl]-piperazin-1-yl}-N-(2-trifluoromethyl-pyridin-4-yl)-benzamide] | 11
Cc1cncc(NC(=O)c2ccccc2N2CCN(C(=O)Cn3nc(C)cc3C)CC2)c1 [2-{4-[2-(3,5-Dimethyl-pyrazol-1-yl)-acetyl]-piperazin-1-yl}-N-(5-methyl-pyridin-3-yl)-benzamide] | 5.1
COc1ccc(C(=O)NCC(=O)N2CCN(c3ccccc3C(=O)Nc3cccnc3)CC2)cc1F [3-Fluoro-4-methoxy-N-(2-oxo-2-{4-[2-(pyridin-3-ylcarbamoyl)-phenyl]-piperazin-1-yl}-ethyl)-benzamide] | 19.5
Cc1ccc(NC(=O)c2ccccc2N2CCN(C(=O)Cn3ccc4cccnc43)CC2)cn1 [N-(6-Methyl-pyridin-3-yl)-2-[4-(2-pyrrolo[2,3-b]pyridin-1-yl-acetyl)-piperazin-1-yl]-benzamide] | 6.8
O=C(Nc1cc(Cl)cnc1N1CCCN(C(=O)CN2CCCCC2)CC1)c1cccc(Cl)c1 [3-Chloro-N-{5-chloro-2-[4-(2-piperidin-1-yl-acetyl)-[1,4]diazepan-1-yl]-pyridin-3-yl}-benzamide] | 3
Cc1nc(C)c(C(=O)NCC(=O)N2CCN(c3ccccc3C(=O)Nc3cccnc3)CC2)s1 [2,4-Dimethyl-thiazole-5-carboxylic acid (2-oxo-2-{4-[2-(pyridin-3-ylcarbamoyl)-phenyl]-piperazin-1-yl}-ethyl)-amide] | 13.9

SMILES | IC50 [nM]
CS(=O)(=O)c1ccc(NC(=O)c2ccccc2N2CCN(C(=O)Cn3c(C(=O)O)cc4cc(Cl)ccc43)CC2)cc1 [5-Chloro-1-(2-{4-[2-(4-methanesulfonyl-phenylcarbamoyl)-phenyl]-piperazin-1-yl}-2-oxo-ethyl)-1-H-indole-2-carboxylic acid] | 25
COc1ccc(C(=O)NCC(=O)N2CCN(c3ccccc3C(=O)Nc3cccnc3)CC2)cc1C [4-Methoxy-3-methyl-N-(2-oxo-2-{4-[2-(pyridin-3-ylcarbamoyl)-phenyl]-piperazin-1-yl}-ethyl)-benzamide] | 11
Cc1cc(C)n(CC(=O)N2CCN(c3ccccc3C(=O)Nc3ccc4nc(C)sc4c3)CC2)n1 [2-{4-[2-(3,5-Dimethyl-pyrazol-1-yl)-acetyl]-piperazin-1-yl}-N-(2-methyl-benzothiazol-6-yl)-benzamide] | 13
CN(CC(=O)N1CCN(c2ccccc2C(=O)Nc2ccncc2)CC1)C(=O)c1ccccc1 [2-{4-[2-(Benzoyl-methyl-amino)-acetyl]-piperazin-1-yl}-N-pyridin-4-yl-benzamide] | 8.4
Cc1cc(C)n(CC(=O)N2CC=C(c3ccc(Cl)cc3NC(=O)c3cccc(Cl)c3)CC2)n1 [3-Chloro-N-(5-chloro-2-{1-[2-(3,5-dimethyl-pyrazol-1-yl)-acetyl]-1,2,3,6-tetrahydro-pyridin-4-yl}-phenyl)-benzamide] | 7
Cc1cc(C)n(CC(=O)N2CCN(c3ccccc3C(=O)Nc3nc(-c4ccncc4)cs3)CC2)n1 [2-{4-[2-(3,5-Dimethyl-pyrazol-1-yl)-acetyl]-piperazin-1-yl}-N-(4-pyridin-4-yl-thiazol-2-yl)-benzamide] | 13.5
Cc1cc(C)n(CC(=O)N2CCN(c3ccccc3C(=O)Nc3ncc(C)s3)CC2)n1 [2-{4-[2-(3,5-Dimethyl-pyrazol-1-yl)-acetyl]-piperazin-1-yl}-N-(5-methyl-thiazol-2-yl)-benzamide] | 7.3
Cc1nn(-c2ccccc2)c(C)c1CC(=O)N1CCN(c2ccccc2C(=O)Nc2ccncc2)CC1 [2-{4-[2-(3,5-Dimethyl-1-phenyl-1H-pyrazol-4-yl)-acetyl]-piperazin-1-yl}-N-pyridin-4-yl-benzamide] | 16
Cc1cc(C)n(CC(=O)N2CCN(c3ccccc3C(=O)Nc3cccnc3)CC2)n1 [2-{4-[2-(3,5-Dimethyl-pyrazol-1-yl)-acetyl]-piperazin-1-yl}-N-pyridin-3-yl-benzamide] | 6.6
Cc1cc(C)n(CC(=O)N2CCN(c3ccccc3NC(=O)c3cccc(C(F)(F)F)c3)CC2)n1 [N-(2-{4-[2-(3,5-Dimethyl-pyrazol-1-yl)-acetyl]-piperazin-1-yl}-phenyl)-3-trifluoromethyl-benzamide] | 7.4
COc1cccc(C(=O)N(C)CC(=O)N2CCN(c3ccccc3C(=O)Nc3ccncc3)CC2)c1OC [2,3-Dimethoxy-N-methyl-N-(2-oxo-2-{4-[2-(pyridin-4-ylcarbamoyl)-phenyl]-piperazin-1-yl}-ethyl)-benzamide] | 15
COc1ccc(NC(=O)c2ccccc2N2CCN(C(=O)Cn3nc(C)cc3C)CC2)cn1 [2-{4-[2-(3,5-Dimethyl-pyrazol-1-yl)-acetyl]-piperazin-1-yl}-N-(6-methoxy-pyridin-3-yl)-benzamide] | 5.9
Cc1cn(CC(=O)N2CCN(c3ccccc3C(=O)Nc3ccccc3)CC2)c(C)n1 [2-{4-[2-(2,4-Dimethyl-imidazol-1-yl)-acetyl]-piperazin-1-yl}-N-phenyl-benzamide] | 5
COc1ccc(C(=O)NCC(=O)N2CCN(c3ccccc3C(=O)Nc3ccccc3)CC2)cc1OC [3,4-Dimethoxy-N-{2-oxo-2-[4-(2-phenylcarbamoyl-phenyl)-piperazin-1-yl]-ethyl}-benzamide] | 8.1
CS(=O)(=O)c1ccc(NC(=O)c2ccccc2N2CCN(C(=O)CN3CCc4cccnc43)CC2)cc1 [2-[4-(2-2,3-Dihydro-pyrrolo[2,3-b]pyridin-1-yl-acetyl)-piperazin-1-yl]-N-(4-methanesulfonyl-phenyl)-benzamide] | 9.7
Cc1cc(C)n(CC(=O)N2CCN(c3ccccc3C(=O)Nc3ccncc3F)CC2)n1 [2-{4-[2-(3,5-Dimethyl-pyrazol-1-yl)-acetyl]-piperazin-1-yl}-N-(3-fluoro-pyridin-4-yl)-benzamide] | 19.5
